Tests used:
[1] = test system: HIV-1 (HIV-1 RF, HIV-1 NL4-3) in CEM-SS / MT-2 cells; experiment: Cytopathic effect (CPE) inhibition assay (XTT/MTT dye reduction); format: cell-based; details: Human immunodeficiency virus 1, NL43; read-out: Ave CPE EC50
How it was run: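 CEM-SS or MT-2 cells were infected with HIV-1 RF or NL4-3 (moi 0.025–0.819) and plated at 2×10^4 cells/well with half-log compound dilutions for 6 days. Viability was read by XTT formazan at 450 nm after 4 h. EC50 restores formazan to 50% of uninfected untreated cells, CC50 halves it in uninfected cells, and TI = CC50/EC50.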

[2] = biological target: T1, HIV-1 protease (Q7S mutant form) (Human immunodeficiency virus type 1 group M subtype B, UniProt P04585, Q495S); experiment: HIV-1 Protease RET assay; format: biochemical; details: Ave. Ki (nM), RET assay, Q7S enzyme, Morrison tight binding fit
T1 construct: made in house
How it was run: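 Q7S HIV-1 protease, refolded from urea, 2 nM active dimer with 5 μM EDANS/DABCYL peptide cleaved at Tyr-Pro; fluorescence 340/490 nm. 12 min at 37 °C in 0.1M sodium acetate pH 4.8, 1M NaCl, 10% DMSO. Ki from Morrison tight-binding fit.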

| Structure (SMILES) | EC50 [1] [nM] | Ki [2] [nM] |
| --- | --- | --- |
| CC1(C)SCN(C(=O)[C@@H](O)[C@H](Cc2ccccc2)NC(=O)c2cccc3c2CCN3)[C@@H]1C(=O)N[C@@H]1C=CCCC1 [Example B41, 2,3-Dihydro-1H-indole-carboxylic acid {(1S,2S)-1-benzyl-3-[(R)-4-((S)-cyclohex-2-enylcarbamoyl)-5,5-dimethyl-thiazolidin-3-yl]-2-hydroxy-3-oxo-propyl}-amide] | 268 | 0.11 |
| CC1(C)SCN(C(=O)[C@@H](O)[C@H](Cc2ccccc2)NC(=O)c2cccc3c2CCN3)[C@@H]1C(=O)N[C@H]1CCc2ccccc21 [Example B42, 2,3-Dihydro-1H-indole-4carboxylic acid {(1S,2S)-1-benzyl-2-hydroxy-3-[(R)-4-((S)-indan-1-ylcarbamoyl)-5,5-dimethyl-thiazolidin-3-yl]-3-oxo-propyl}-amide] | 155 | 0.13 |
| Cc1ccc(C(=O)N[C@@H](Cc2ccccc2)[C@H](O)C(=O)N2CSC(C)(C)[C@H]2C(=O)N[C@H]2CCc3ccccc32)c(C)c1O [Example B43, (R)-3-((2S,3S)-2-Hydroxy-3-{[1-(3-hydroxy-2,4-dimethyl-phenyl)-methanoyl]-amino}-4-phenyl-butanoyl)-5,5-dimethyl-thiazolidine-4-carboxylic acid (S)-indan-1-ylamide] | 375 | < 0.1 |
| CC1(C)SCN(C(=O)[C@@H](O)[C@H](Cc2ccccc2)NC(=O)c2cccc3c2CCN3)[C@@H]1C(=O)NC[C@H]1CCCO1 [Example B44, 2,3-Dihydro-1H-indole-4-carboxylic acid [(1S,2S)-1-benzyl-3-((R)-5,5-dimethyl-4-{[(R)-1-(tetrahydro-furan-2-yl)methyl]-carbamoyl}-thiazolidin-3-yl)-2-hydroxy-3-oxo-propyl]-amide] | 660 | 4.8 |
| CCCNC(=O)[C@H]1N(C(=O)[C@@H](O)[C@H](Cc2ccccc2)NC(=O)c2cccc3c2CCN3)CSC1(C)C [Example B45, 2,3-Dihydro-1H-indole-4-carboxylic acid [(1S,2S)-1-benzyl-3-((R)-5,5-dimethyl-4-propylcarbamoyl-thiazoldin-3-yl)-2-hydroxy-3-oxo-propyl]-amide] | 572 | 1.1 |
| C=CCOC(=O)N[C@@H](Cc1ccccc1)[C@H](O)C(=O)N1CSC(C)(C)[C@H]1C(=O)NCc1ccccc1Cl [Example B47, {(1S,2S)-1-Benzyl-3-[(R)-4(2-chloro-benzylcarbamoyl)-5,5-dimethyl-thiazolidin-3-yl]-2-hydroxy-3-oxo-propyl}-carbamic acid allyl ester] | 1480 | 1.9 |
| C#CCOC(=O)N[C@@H](Cc1ccccc1)[C@H](O)C(=O)N1CSC(C)(C)[C@H]1C(=O)NCc1ccccc1Cl [Example B48, {1-Benzyl-3-[4(2-chloro-benzylcarbamoyl)-5,5-dimethyl-thiazolidin-3-yl]-2-hydroxy-3-oxo-propyl}-carbamic acid prop-2-ynyl ester] | 1480 | 0.83 |
| C#CCOC(=O)N[C@@H](Cc1ccccc1)[C@H](O)C(=O)N1CSC(C)(C)[C@H]1C(=O)NCc1c(F)cccc1F [Example B51, {1-Benzyl-3-[4-(2,6-difluoro-benzylcarbamoyl)-5,5-dimethyl-thiazolidin-3-yl]-2-hydroxy-3-oxo-propyl}-carbamic acid prop-2-ynyl] | > 3200 | 0.99 |
| C#CCOC(=O)N[C@@H](Cc1ccccc1)[C@H](O)C(=O)N1CSC(C)(C)[C@H]1C(=O)NCc1ccccc1C(F)(F)F [Example B54, {1-Benzyl-3-[5,5-dimethyl-4-(2-trifluoromethyl-benzylcarbamoyl)-thiazolidin-3-yl]-2-hydroxy-3-oxo-propyl}-carbamic acid prop-2-ynyl ester] | 1660 | 2.3 |
| Cc1ccccc1CNC(=O)[C@H]1N(C(=O)[C@@H](O)[C@H](Cc2ccccc2)NC(=O)NCc2ccccc2)CSC1(C)C [Example B59, 3-[(2S,3S)-3-(3-Benzyl-ureido)-2-hydroxy-4-phenyl-butyryl]-5,5-dimethyl-thiazolidine-4-carboxylic acid 2-methyl-benzylamide] | 1820 | 2.1 |
| COc1ccc(CNC(=O)N[C@@H](Cc2ccccc2)[C@H](O)C(=O)N2CSC(C)(C)[C@H]2C(=O)NCc2ccccc2C)cc1 [Example B60, 3-{(S)-2-Hydroxy-3-[3-(4-methoxy-benzyl)-ureido]-4phenyl-butyryl}-5,5-dimethyl-thiazolidine-4-carboxylic acid 2-methyl-benzylamide] | > 3200 | 1.1 |
| C#CCOC(=O)N[C@@H](Cc1ccccc1)[C@H](O)C(=O)N1CSC(C)(C)[C@H]1C(=O)NCc1ccc(OC)cc1 [Example B64, {(1S,2S)-1-Benzyl-2-hydroxy-3-[4-(4-methoxy-benzylcarbamoyl)-5,5-dimethyl-thiazolidin-3-yl]-3-oxo-propyl}-carbamic acid prop-2-ynyl ester] | 1600 | 0.53 |
| CCC(C)C(=O)NC(Cc1ccccc1)C(O)C(=O)N1CSC(C)(C)[C@H]1C(=O)NCc1ccccc1C (stereo partly drawn) [Example B65, 3-[(2S,3S)-2-Hydroxy-3-((S)-2-methyl-butyrylamino)-4-phenyl-butyryl]-5,5-dimethyl-thiazolidine-4-carboxylic acid 2-methyl-benzylamide] | 1640 | 4.9 |
| C#CCOC(=O)N[C@@H](Cc1ccccc1)[C@H](O)C(=O)N1CSC(C)(C)[C@H]1C(=O)NCc1ccncc1 [Example B67, ((1S,2S)-1-Benzyl-3-{5,5-dimethyl-4-[(pyridin-4-ylmethyl)-carbamoyl]-thiazolidin-3-yl}-2-hydroxy-3-oxo-propyl)-carbamic acid prop-2-ynyl ester] | > 3200 | 11.4 |
| Cc1ccccc1C(=O)N[C@@H](Cc1ccccc1)[C@H](O)C(=O)N1CSC(C)(C)[C@H]1C(=O)N[C@H]1CCc2ccccc21 [Example B78, (R)-3-{(2S,3S)-2-Hydroxy-4-phenyl-3-[(1-o-tolyl-methanoyl)-amino]-butanoyl}-5,5-dimethyl-thiazolidine-4-carboxylic acid (S)-indan-1-ylamide] | 557 | 0.18 |
| Cc1ccccc1C(=O)N[C@@H](Cc1ccccc1)[C@H](O)C(=O)N1CSC(C)(C)[C@H]1C(=O)NCc1cccs1 [Example B79, (R)-3-{(2S,3S)-2-Hydroxy-4phenyl-3-[(1-o-tolyl-methanoyl)-amino]-butanoyl}-5,5-dimethyl-thiazolidine-4-carboxylic acid (thiophen-2-ylmethyl)-amide] | 530 | 0.78 |
| Cc1c(F)cccc1C(=O)N[C@@H](Cc1ccccc1)[C@H](O)C(=O)N1CSC(C)(C)[C@H]1C(=O)N[C@@H]1C=CCCC1 [Example B81, (R)-3-((2S,3S)-3-{[1-(3-Fluoro-2-methyl-phenyl)-methanoyl]-amino}-2-hydroxy-4-phenyl-butanoyl)-5,5-dimethyl-thiazolidine-4-carboxylic acid (S)-cyclohex-2-enylamide] | 878 | 0.35 |
| Cc1c(F)cccc1C(=O)N[C@@H](Cc1ccccc1)[C@H](O)C(=O)N1CSC(C)(C)[C@H]1C(=O)N[C@H]1CCc2ccccc21 [Example B82, (R)-3-((2S,3S)-3-{[1-(3-Fluoro-2-methyl-phenyl)-methanoyl]-amino}-2-hydroxy-4-phenyl-butanoyl)-5,5-dimethyl-thiazolidine-4-carboxylic acid (S)-indan-1-ylamide] | 1290 | 0.19 |
